{
  "source": "patent US8173654B2",
  "about": "“Triazolopyridazine compounds” (Janssen Pharmaceutica N.V., priority 2005, dated 2012)",
  "key": {"[1]": {"system": "U87MG glioblastoma tumors", "assay": "U87MG glioblastoma tumor xenograft model (tumor growth inhibition)", "type": "in vivo, athymic nude mice", "method": "The U87MG glioblsatoma cell line (Piedmont Research Center LLC) expresses the c-Met receptor and responds to Human Growth Factor (HGF). This study investigated whether treatment with an inhibitor of c-Met is efficacious against the U87MG glioblastoma tumor xenograft model. This study utilized a tumor growth inhibition (TGI) assay to test per os (p.o.) compound monotherapy in groups of fifteen nude mice. A control group was treated with vehicle, 20% Hydroxypropyl Beta-Cyclodextrin (HPBCD). All treatments began on Day 1 (D1) in mice bearing established subcutaneous (s.c.) U87MG tumors.\nFemale athymic nude mice (Harlan) were 10-11 weeks old with a BW range of 18.1-25.0 g on D1 of the study. The animals were fed ad libitum water (reverse osmosis, 1 ppm Cl) and NIH 31 Modified and Irradiated Lab Diet® consisting of 18.0% crude protein, 5.0% crude fat, and 5.0% crude fiber. The mice were housed on irradiated ALPHA-dri® Bed-o-cobs® Laboratory Animal Bedding in static microisolators on a 12-hour light cycle at 21-22° C. (70-72° F.) and 40-60% humidity. All animals were housed in a Laboratory Animal Medicine facility that is fully accredited by the American Association for Assessment and Accreditation of Laboratory Animal Care (AAALAC). All procedures involving animals were conducted in compliance with the NIH Guide for the Care and Use of Laboratory Animals and all protocols were approved by an Internal Animal Care and Use Committee (IACUC).\nXenografts were initiated from U87MG human glioblastoma tumor fragments maintained by serial transplantation in athymic nude mice. Each test mouse received a subcutaneous U87MG tumor fragment (1 mm^3) implanted in the right flank, and the growth of tumors was monitored as the average size approached 200 mm^3. Twelve days later, on Day 1 of the study, the animals were sorted into 4 groups (n=12-15 mice/group) with individual tumor volumes ranging from 172-352 mm^3 and group mean tumor volumes of 216 mm^3. Tumor volume was calculated using the formula:\n[formula] where w=width and l=length in mm of the tumor. Tumor weight may be estimated with the assumption that 1 mg is equivalent to 1 mm^3 of tumor volume. Drug Treatment\nDosing solutions of compounds of the present invention were prepared fresh weekly in a vehicle consisting of 20% Hydroxypropyl Beta-Cyclodextrin (HPBCD) in water. In all groups, the dosing volume of 0.2 mL/20-g mouse was scaled to the body weight of each animal. Doses were given to allow for the HCl salt form of the compound.\nTGI was calculated from the difference between the median tumor volumes of vehicle-treated and drug-treated mice, expressed as a percentage of the median tumor volume of the vehicle-treated control group, by the following relation:\nThe MTV (n) is defined as the median tumor volume (MTV) for the number of animals, n, remaining in the study on that day.\nAnimals were weighed daily for the first five days of the study and then twice weekly. The mice were examined frequently for overt signs of any adverse, drug-related side effects, and clinical signs of toxicity were recorded when observed. Acceptable toxicity is defined as a group mean body-weight (BW) loss of less than 20% during the study, and not more than one treatment-related (TR) death among ten animals. A death is classified as TR if it is attributable to treatment side effects as evidenced by clinical signs and/or necropsy, or due to unknown causes during the dosing period or within 10 days of the last dose. A death is classified as non treatment-related (NTR) if there is no evidence that the death was related to drug side effects. A death is classified as non treatment-related unknown (NTRu) if the cause of death is unknown.\nThe Mann-Whitney U-test, for analysis of medians, was used to determine the statistical significance of the difference between the MTVs. Prism 3.03 (GraphPad) for Windows was used for the statistical analyses and graphic presentations. […]"}, "c-Met": {"biological_target": "c-Met (Homo sapiens, UniProt P08581)", "sequence (P08581 25-1390)": "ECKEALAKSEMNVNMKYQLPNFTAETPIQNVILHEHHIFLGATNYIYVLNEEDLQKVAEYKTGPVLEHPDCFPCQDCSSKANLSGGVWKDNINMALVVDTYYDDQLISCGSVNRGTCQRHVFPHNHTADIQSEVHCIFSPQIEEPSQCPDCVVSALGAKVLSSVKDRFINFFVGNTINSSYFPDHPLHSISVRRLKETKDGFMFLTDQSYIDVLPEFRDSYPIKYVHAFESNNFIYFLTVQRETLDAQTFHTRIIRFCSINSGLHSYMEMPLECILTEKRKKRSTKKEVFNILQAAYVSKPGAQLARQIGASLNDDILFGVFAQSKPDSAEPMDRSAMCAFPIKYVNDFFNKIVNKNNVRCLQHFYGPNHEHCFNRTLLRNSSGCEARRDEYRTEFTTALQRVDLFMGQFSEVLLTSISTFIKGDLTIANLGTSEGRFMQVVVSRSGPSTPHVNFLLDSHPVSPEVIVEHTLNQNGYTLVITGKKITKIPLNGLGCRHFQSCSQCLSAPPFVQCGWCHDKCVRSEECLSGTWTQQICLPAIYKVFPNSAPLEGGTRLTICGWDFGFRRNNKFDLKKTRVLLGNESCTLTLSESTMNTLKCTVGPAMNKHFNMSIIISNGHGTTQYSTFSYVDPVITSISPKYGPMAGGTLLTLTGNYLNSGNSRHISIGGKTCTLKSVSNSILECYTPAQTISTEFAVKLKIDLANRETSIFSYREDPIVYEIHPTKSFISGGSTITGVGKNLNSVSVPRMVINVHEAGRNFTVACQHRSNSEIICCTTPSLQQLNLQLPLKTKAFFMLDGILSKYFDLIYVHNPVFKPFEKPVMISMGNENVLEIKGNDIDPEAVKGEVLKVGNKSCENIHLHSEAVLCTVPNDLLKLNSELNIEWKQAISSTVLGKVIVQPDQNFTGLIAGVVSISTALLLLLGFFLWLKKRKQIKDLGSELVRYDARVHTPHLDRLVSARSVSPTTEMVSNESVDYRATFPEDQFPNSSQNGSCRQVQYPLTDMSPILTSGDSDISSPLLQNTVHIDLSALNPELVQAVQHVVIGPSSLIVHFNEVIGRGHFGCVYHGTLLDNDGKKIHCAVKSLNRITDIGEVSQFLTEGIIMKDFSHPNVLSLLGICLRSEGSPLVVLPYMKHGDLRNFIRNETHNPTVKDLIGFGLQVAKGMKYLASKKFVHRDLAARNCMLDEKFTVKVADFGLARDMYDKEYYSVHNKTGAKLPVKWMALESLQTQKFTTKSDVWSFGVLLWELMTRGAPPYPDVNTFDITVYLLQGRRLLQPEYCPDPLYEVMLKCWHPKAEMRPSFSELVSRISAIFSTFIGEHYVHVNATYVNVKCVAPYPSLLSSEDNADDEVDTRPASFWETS", "assay": "Cell based ELISA assay for HGF stimulated c-Met phosphorylation in S114 cells", "parameters": "expressed in transfected cells; host or cells: S114 (murine NIH 3T3 derived)", "conditions": "read-out: c-Met Cell ELISA IC-50"}},
  "note": "pIC50: −log10 of the molar value.",
  "data": [
    {"smiles": "Cn1cc(-c2ccc3nnc(C(F)(F)c4ccc5ncccc5c4)n3n2)cn1", "note": "[Example 61, 6-{Difluoro-[6-(1-methyl-1H-pyrazol-4-yl)-[1,2,4]triazolo[4,3-b]pyridazin-3-yl]-methyl}-quinoline]", "values": [
      {"measurement": "decrease of mean tumor volume", "setting": "[1]; 25 mg/kg p.o., q.d. on day 1 and b.i.d. to day 12, Day 12, p<0.01", "value": 94, "unit": "%"},
      {"measurement": "decrease of mean tumor volume", "setting": "[1]; 50 mg/kg p.o., b.i.d. for 7 days, 24-hr pause, then q.d. to day 12, Day 12, p<0.01", "value": 96, "unit": "%"},
      {"measurement": "decrease of mean tumor volume", "setting": "[1]; 75 mg/kg p.o., b.i.d. for 7 days, 24-hr pause, then q.d. to day 12, Day 12, p<0.01", "value": 97, "unit": "%"},
      {"measurement": "tumor regression", "setting": "[1]; 25, 50 and 75 mg/kg p.o., 12 days", "value": "Tumor regression was also observed with all three doses"},
      {"measurement": "tumor growth inhibition of U87MG tumors", "setting": "[1]; 25, 50 and 75 mg/kg p.o., 12 days, p<0.01", "value": "statistically significant, tumor growth inhibition"},
      {"measurement": "pIC50", "setting": "c-Met", "value": 8.70}
    ]}
  ]
}
